# Experimental data reported in patent publication US20100055192A1, “MICRONIZED PARTICLES OF LOW-DOSAGE STRENGTH ACTIVE AGENTS FOR POWDER FORMULATIONS FOR INHALATION” (Chiesi Farmaceutici S.p.A., priority 2007, published 2010).
# Where a name gives a salt, the structure may show the parent alone.
# Key:
# Type in all cases: physicochemical
# [1] = Particle size distribution by laser diffraction (Malvern apparatus); details: for Particle size d (v, 0.05): volume diameter of 5% of the particles; for Particle size d (v, 0.1): volume diameter of 10% of the particles; for Particle size d (v, 0.5): volume diameter of 50% of the particles; for Particle size d (v, 0.9): volume diameter of 90% of the particles
# Description: (§1) The particle size was determined by laser diffraction using a Malvern apparatus. The parameters taken into consideration were the VD in microns of 5%, 10%, 50%, and 90% of the particles expressed as d(v,0.05), d(v,0.1), d(v, 0.5), and d(v, 0.9), respectively, which correspond to the mass diameter assuming a size independent density for the particles. The Specific Surface Area (SSA) was determined by BET nitrogen adsorption using a Coulter SA3100 apparatus as a mean of three determinations.
# (§2) Different batches of formoterol fumarate dihydrate were milled in a jet mill apparatus at different operating conditions in order to obtain different particle size distribution. The micronized batches were characterised in terms of particle size distribution and Specific Surface Area as reported in Example 1.
# [2] = Specific Surface Area by BET nitrogen adsorption (Coulter SA3100); details: mean of three determinations
# Description: as §1, §2
# [3] = Agglomerates after mixing with a carrier of coarser particles, detected by Near Infrared Spectrophotometer with microscope; details: batch added to carrier of coarser particles; suitable time of mixing, or ten hours of mixing where agglomerates remained
# Description: (§3) The various batches were then added to a carrier made of coarser particles.
# as §3
smiles,measurement,setting,value
COc1ccc(C[C@@H](C)NC[C@H](O)c2ccc(O)c3[nH]c(=O)ccc23)cc1 [carmoterol hydrochloride batch 1],"Particle size d (v, 0.05)",[1],0.70 μm
same,"Particle size d (v, 0.1)",[1],0.94 μm
same,"Particle size d (v, 0.5)",[1],2.16 μm
same,"Particle size d (v, 0.9)",[1],4.34 μm
same,SSA (Specific Surface Area),[2],9.70 m^2/g
same,Agglomerates of the active ingredient in the formulation after mixing,[3],no agglomerates were observed
COc1ccc(C[C@@H](C)NC[C@H](O)c2ccc(O)c3[nH]c(=O)ccc23)cc1 [carmoterol hydrochloride batch 2],"Particle size d (v, 0.05)",[1],0.67 μm
same,"Particle size d (v, 0.1)",[1],0.85 μm
same,"Particle size d (v, 0.5)",[1],2.03 μm
same,"Particle size d (v, 0.9)",[1],4.31 μm
same,SSA (Specific Surface Area),[2],9.68 m^2/g
same,Agglomerates of the active ingredient in the formulation after mixing,[3],no agglomerates were observed
COc1ccc(C[C@@H](C)NC[C@H](O)c2ccc(O)c3[nH]c(=O)ccc23)cc1 [carmoterol hydrochloride batch 3],"Particle size d (v, 0.05)",[1],0.58 μm
same,"Particle size d (v, 0.1)",[1],0.59 μm
same,"Particle size d (v, 0.5)",[1],1.32 μm
same,"Particle size d (v, 0.9)",[1],2.75 μm
same,SSA (Specific Surface Area),[2],18.11 m^2/g
same,Agglomerates of the active ingredient in the formulation after mixing,[3],agglomerates where still present
COc1ccc(C[C@@H](C)NC[C@H](O)c2ccc(O)c3[nH]c(=O)ccc23)cc1 [carmoterol hydrochloride batch 4],"Particle size d (v, 0.05)",[1],0.55 μm
same,"Particle size d (v, 0.1)",[1],0.68 μm
same,"Particle size d (v, 0.5)",[1],1.58 μm
same,"Particle size d (v, 0.9)",[1],3.40 μm
same,SSA (Specific Surface Area),[2],10.74 m^2/g
same,Agglomerates of the active ingredient in the formulation after mixing,[3],agglomerates where still present
COc1ccc(C[C@@H](C)NC[C@H](O)c2ccc(O)c3[nH]c(=O)ccc23)cc1 [carmoterol hydrochloride batch 5],"Particle size d (v, 0.05)",[1],0.48 μm
same,"Particle size d (v, 0.1)",[1],0.70 μm
same,"Particle size d (v, 0.5)",[1],1.45 μm
same,"Particle size d (v, 0.9)",[1],2.75 μm
same,SSA (Specific Surface Area),[2],11.91 m^2/g
same,Agglomerates of the active ingredient in the formulation after mixing,[3],agglomerates where still present
COc1ccc(C[C@@H](C)NC[C@H](O)c2ccc(O)c3[nH]c(=O)ccc23)cc1 [carmoterol hydrochloride batch 6],"Particle size d (v, 0.05)",[1],0.59 μm
same,"Particle size d (v, 0.1)",[1],0.73 μm
same,"Particle size d (v, 0.5)",[1],1.61 μm
same,"Particle size d (v, 0.9)",[1],3.25 μm
same,SSA (Specific Surface Area),[2],11.80 m^2/g
